# Data reported in PubChem BioAssay (NCI).
#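 Compound exposure: 48 hours, 5 concentrations, 96-well plates. Abbreviation: GI50, concentration required for 50% inhibition of growth. Definition used: TGI = concentration required for complete inhibition of growth.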
# How the values were obtained:
# Assay in all cases: NCI-60 cell line screen, 48 h
# 786-0 renal = tested on: 786-0 renal
# HCT-116 colon = tested on: HCT-116 colon
# CCRF-CEM leukemia = tested on: CCRF-CEM leukemia
# MDA-MB-231 breast = tested on: MDA-MB-231 breast
# SW-620 colon = tested on: SW-620 colon
# HOP-62 NSCLC = tested on: HOP-62 NSCLC
# NCI-H23 lung = tested on: NCI-H23 lung
# A549 NSCLC = tested on: A549 NSCLC
# IGROV1 ovarian = tested on: IGROV1 ovarian
compound,measurement,setting,value
Nc1nc(Nc2ccc(Cl)cc2)sc1C(=O)c1cccs1,TGI,786-0 renal,> 100 µM
same,TGI,HCT-116 colon,> 100 µM
same,TGI,CCRF-CEM leukemia,> 100 µM
same,TGI,MDA-MB-231 breast,> 100 µM
same,TGI,SW-620 colon,> 100 µM
same,TGI,HOP-62 NSCLC,53.6 µM
same,TGI,NCI-H23 lung,> 100 µM
same,TGI,A549 NSCLC,> 100 µM
same,TGI,IGROV1 ovarian,> 100 µM
O=C(O)CC(NC(=O)/C(=C/c1ccccc1O)NC(=O)c1ccccc1)C(=O)O (stereo not given),TGI,786-0 renal,> 100 µM
same,TGI,HCT-116 colon,> 100 µM
same,TGI,CCRF-CEM leukemia,> 100 µM
same,TGI,MDA-MB-231 breast,> 100 µM
same,TGI,SW-620 colon,> 100 µM
same,TGI,HOP-62 NSCLC,> 100 µM
same,TGI,NCI-H23 lung,> 100 µM
same,TGI,A549 NSCLC,> 100 µM
same,TGI,IGROV1 ovarian,> 100 µM
Cc1ccc(-c2c(C#N)c(-c3ccc([N+](=O)[O-])cc3)c(C#N)c(=O)n2NS(=O)(=O)c2ccccc2)cc1,TGI,786-0 renal,> 100 µM
same,TGI,HCT-116 colon,> 100 µM
same,TGI,CCRF-CEM leukemia,58.3 µM
same,TGI,MDA-MB-231 breast,> 100 µM
same,TGI,SW-620 colon,> 100 µM
same,TGI,HOP-62 NSCLC,> 100 µM
same,TGI,A549 NSCLC,> 100 µM
same,TGI,IGROV1 ovarian,> 100 µM
NS(=O)(=O)c1ccc(NC(NC(=O)C(C(F)(F)F)C(F)(F)F)(C(F)(F)F)C(F)(F)F)cc1,TGI,786-0 renal,> 100 µM
same,TGI,HCT-116 colon,> 100 µM
same,TGI,CCRF-CEM leukemia,> 100 µM
same,TGI,MDA-MB-231 breast,> 100 µM
same,TGI,SW-620 colon,> 100 µM
same,TGI,HOP-62 NSCLC,> 100 µM
same,TGI,NCI-H23 lung,> 100 µM
same,TGI,A549 NSCLC,> 100 µM
same,TGI,IGROV1 ovarian,> 100 µM
O=C(Nc1ccc(-n2cc(-c3ccncc3)c(-c3ccc(O)c(Cl)c3)n2)cc1)Nc1cccc(Cl)c1Cl,GI50,HCT-116 colon,3.26 µM
same,TGI,HCT-116 colon,21.6 µM
same,GI50,CCRF-CEM leukemia,2.47 µM
same,TGI,CCRF-CEM leukemia,> 32.5 µM
same,GI50,MDA-MB-231 breast,1.52 µM
same,TGI,MDA-MB-231 breast,10.3 µM
same,GI50,SW-620 colon,20.6 µM
same,TGI,SW-620 colon,> 32.5 µM
same,GI50,HOP-62 NSCLC,10.6 µM
same,TGI,HOP-62 NSCLC,> 32.5 µM
same,GI50,NCI-H23 lung,14.6 µM
same,TGI,NCI-H23 lung,> 32.5 µM
same,GI50,A549 NSCLC,9.11 µM
same,TGI,A549 NSCLC,> 32.5 µM
same,GI50,IGROV1 ovarian,14.5 µM
same,TGI,IGROV1 ovarian,> 32.5 µM
O=C1CS(=O)C23c4cc5ccccc5n4CCC2CCCN13 (stereo not given),TGI,786-0 renal,> 100 µM
same,TGI,HCT-116 colon,> 100 µM
same,TGI,MDA-MB-231 breast,> 100 µM
same,TGI,SW-620 colon,> 100 µM
same,TGI,HOP-62 NSCLC,> 100 µM
same,TGI,NCI-H23 lung,> 100 µM
same,TGI,A549 NSCLC,> 100 µM
same,TGI,IGROV1 ovarian,> 100 µM
COC(=O)c1cc2c(cc1CC(Cc1ccc3c(c1)CCC3)C(=O)OC)CCC2 (stereo not given),TGI,786-0 renal,> 100 µM
same,TGI,HCT-116 colon,> 100 µM
same,TGI,CCRF-CEM leukemia,> 100 µM
same,TGI,MDA-MB-231 breast,> 100 µM
same,TGI,SW-620 colon,> 100 µM
same,TGI,HOP-62 NSCLC,> 100 µM
same,TGI,NCI-H23 lung,> 100 µM
same,TGI,A549 NSCLC,> 100 µM
same,TGI,IGROV1 ovarian,> 100 µM
OCC(O)C(O)C(O)/C=N/Nc1nc(O)c(/C=C2\C=Nc3ccccc32)[nH]1 (stereo not given),TGI,786-0 renal,> 100 µM
same,TGI,HCT-116 colon,> 100 µM
same,TGI,CCRF-CEM leukemia,> 100 µM
same,TGI,MDA-MB-231 breast,> 100 µM
same,TGI,SW-620 colon,> 100 µM
same,TGI,HOP-62 NSCLC,> 100 µM
same,TGI,NCI-H23 lung,> 100 µM
same,TGI,A549 NSCLC,> 100 µM
same,TGI,IGROV1 ovarian,> 100 µM
O=c1n(Cc2ccccc2)c(=O)n2c(=O)n(Cc3ccccc3)c(=O)n12,TGI,786-0 renal,> 100 µM
same,TGI,HCT-116 colon,> 100 µM
same,TGI,CCRF-CEM leukemia,> 100 µM
same,TGI,MDA-MB-231 breast,> 100 µM
same,TGI,SW-620 colon,> 100 µM
same,TGI,NCI-H23 lung,> 100 µM
COC(=O)C1OC(O[C@H]2CC[C@]3(C)[C@H]4CC=C5[C@@H]6CC(C)(C)CC[C@]6(C(=O)OC6OCC(O)C(O)C6OC6OC(C)C(OC7OCC(OC8OCC(O)C(O)C8O)C(O)C7O)C(O)C6O)[C@H](O)C[C@@]5(C)[C@]4(C)CC[C@H]3C2(C)C)C(O)C(O)C1O (stereo not given in full),TGI,786-0 renal,20.2 µM
same,TGI,HCT-116 colon,12.9 µM
same,TGI,CCRF-CEM leukemia,> 100 µM
same,TGI,MDA-MB-231 breast,9.33 µM
same,TGI,SW-620 colon,11.8 µM
same,TGI,HOP-62 NSCLC,13 µM
same,TGI,NCI-H23 lung,6.53 µM
same,TGI,A549 NSCLC,9.63 µM
same,TGI,IGROV1 ovarian,9.34 µM
c1csc(-c2c3ccc(=[N+]4CCCCC4)cc-3oc3cc(N4CCCCC4)ccc23)c1,GI50,CCRF-CEM leukemia,0.0503 µM
same,TGI,CCRF-CEM leukemia,1.07 µM
same,GI50,HOP-62 NSCLC,0.0648 µM
same,TGI,HOP-62 NSCLC,0.199 µM
Cc1c(C#N)c(N)n(C2OCC(O)C(O)C2O)c(=S)c1C#N (stereo not given),TGI,786-0 renal,> 100 µM
same,TGI,CCRF-CEM leukemia,> 100 µM
same,TGI,MDA-MB-231 breast,> 100 µM
same,TGI,SW-620 colon,> 100 µM
same,TGI,HOP-62 NSCLC,> 100 µM
same,TGI,NCI-H23 lung,> 100 µM
same,TGI,A549 NSCLC,> 100 µM
same,TGI,IGROV1 ovarian,> 100 µM
CCN1C(=O)N(CC)C2Nn3c(s/c(=C4\C(=O)N(C)c5ccccc54)c3=O)=NC21 (stereo not given),GI50,HCT-116 colon,1.95 µM
same,TGI,HCT-116 colon,> 100 µM
same,GI50,CCRF-CEM leukemia,3.3 µM
same,TGI,CCRF-CEM leukemia,> 100 µM
same,GI50,MDA-MB-231 breast,3.42 µM
same,TGI,MDA-MB-231 breast,> 100 µM
same,GI50,SW-620 colon,1.52 µM
same,TGI,SW-620 colon,> 100 µM
same,GI50,NCI-H23 lung,3.38 µM
same,TGI,NCI-H23 lung,> 100 µM
same,GI50,A549 NSCLC,5.08 µM
same,TGI,A549 NSCLC,> 100 µM
same,GI50,IGROV1 ovarian,3.37 µM
same,TGI,IGROV1 ovarian,> 100 µM
CC/C(Cl)=N\OC(=O)Nc1ccc(F)c([N+](=O)[O-])c1,TGI,786-0 renal,26.8 µM
same,TGI,HCT-116 colon,30.6 µM
same,TGI,CCRF-CEM leukemia,> 20 µM
same,TGI,MDA-MB-231 breast,34.9 µM
same,TGI,SW-620 colon,33.6 µM
same,TGI,HOP-62 NSCLC,35 µM
same,TGI,NCI-H23 lung,35.6 µM
same,TGI,A549 NSCLC,43.4 µM
same,TGI,IGROV1 ovarian,33.8 µM
O=C(c1ccccc1)N1C(=S)N=C(Nc2ccccc2)C1=Nc1ccccc1,TGI,786-0 renal,> 100 µM
same,TGI,HCT-116 colon,> 100 µM
same,TGI,CCRF-CEM leukemia,> 100 µM
same,TGI,MDA-MB-231 breast,> 100 µM
same,TGI,SW-620 colon,> 100 µM
same,TGI,HOP-62 NSCLC,> 100 µM
same,TGI,NCI-H23 lung,> 100 µM
same,TGI,A549 NSCLC,> 100 µM
same,TGI,IGROV1 ovarian,> 100 µM
Cc1cc2nc(-c3cc(C(C)(C)C)c(O)c(C(C)(C)C)c3)[nH]c2cc1C,TGI,786-0 renal,2.73 µM
same,TGI,CCRF-CEM leukemia,5.71 µM
same,TGI,MDA-MB-231 breast,> 100 µM
same,TGI,SW-620 colon,13.5 µM
same,TGI,HOP-62 NSCLC,> 100 µM
same,TGI,NCI-H23 lung,> 100 µM
same,TGI,A549 NSCLC,26.3 µM
same,TGI,IGROV1 ovarian,> 100 µM
CN1COCc2cc3cc4c(cc3nc21)OCCO4,TGI,786-0 renal,> 100 µM
same,TGI,HCT-116 colon,> 100 µM
same,TGI,CCRF-CEM leukemia,> 100 µM
same,TGI,MDA-MB-231 breast,> 100 µM
same,TGI,SW-620 colon,> 100 µM
same,TGI,HOP-62 NSCLC,> 100 µM
same,TGI,A549 NSCLC,> 100 µM
same,TGI,IGROV1 ovarian,> 100 µM
CC1=CC(=O)CC2(C)CCC(C(C)CC(=O)CC(C)C)CC12 (stereo not given),TGI,786-0 renal,31 µM
same,TGI,HCT-116 colon,30.4 µM
same,TGI,CCRF-CEM leukemia,61.2 µM
same,TGI,MDA-MB-231 breast,> 100 µM
same,TGI,SW-620 colon,46 µM
same,TGI,NCI-H23 lung,> 100 µM
same,TGI,A549 NSCLC,34.8 µM
same,TGI,IGROV1 ovarian,72.5 µM
CC(C)(C)c1ccc(OCC(=O)O)c(Cl)c1,TGI,786-0 renal,> 100 µM
same,TGI,HCT-116 colon,> 100 µM
same,TGI,CCRF-CEM leukemia,> 100 µM
same,TGI,MDA-MB-231 breast,> 100 µM
same,TGI,SW-620 colon,> 100 µM
same,TGI,HOP-62 NSCLC,> 100 µM
same,TGI,NCI-H23 lung,> 100 µM
same,TGI,A549 NSCLC,> 100 µM
same,TGI,IGROV1 ovarian,> 100 µM
CC(C)(C)OC(=O)C1C(=O)NC(=O)CC1C(COCc1ccccc1)OCc1ccccc1 (stereo not given),TGI,786-0 renal,45.3 µM
same,TGI,HCT-116 colon,32.7 µM
same,TGI,CCRF-CEM leukemia,77.3 µM
same,TGI,MDA-MB-231 breast,36.4 µM
same,TGI,SW-620 colon,65.1 µM
same,TGI,HOP-62 NSCLC,26.6 µM
same,TGI,NCI-H23 lung,92.6 µM
same,TGI,A549 NSCLC,> 100 µM
same,TGI,IGROV1 ovarian,52.5 µM
S=C1CC(c2ccccc2)Sc2ccc(Cl)cc2N1 (stereo not given),TGI,786-0 renal,59.5 µM
same,TGI,HCT-116 colon,> 100 µM
same,TGI,CCRF-CEM leukemia,> 100 µM
same,TGI,MDA-MB-231 breast,> 100 µM
same,TGI,HOP-62 NSCLC,> 100 µM
same,TGI,NCI-H23 lung,> 100 µM
same,TGI,A549 NSCLC,> 100 µM
same,TGI,IGROV1 ovarian,> 100 µM
COC(=O)[C@H](C)NC(=O)[C@H](CSC)N1C(=O)N[C@@H](C(C)C)C1=O,TGI,786-0 renal,> 100 µM
same,TGI,HCT-116 colon,> 100 µM
same,TGI,CCRF-CEM leukemia,> 100 µM
same,TGI,MDA-MB-231 breast,> 100 µM
same,TGI,SW-620 colon,> 100 µM
same,TGI,HOP-62 NSCLC,> 100 µM
same,TGI,NCI-H23 lung,> 100 µM
same,TGI,A549 NSCLC,> 100 µM
same,TGI,IGROV1 ovarian,> 100 µM
